In patent US7829560B2, “1,4-disubstituted naphthalenes as inhibitors of P38 MAP kinase” (Arqule, Inc., priority 2004, dated 2010) one finds IC50 and inhibition data, which are given here for 34 molecules.

For orientation: IC50 means the concentration that inhibits the measured activity by half.

For one experiment, the target named is T1, p38α (Homo sapiens, UniProt Q16539).
T1 construct: p38 MAP Kinases are recombinant human full-length proteins with an amino-terminal GST fusion; GST (N); purchased Upstate Biotechnology Inc; host or cells: E. coli
The experiment can be described thus: p38 MAP Kinase assay: inhibition of ATF2 phosphorylation, ELISA. The format is biochemical. The following applies: for IC50: ATF2 phosphorylation, read-out: [ENZ] P38 ALPHA, IC50, ELISA; for inhibition at 10 µM: substrate ATF2, read-out: [ENZ] P38 ALPHA, PCT INH, ELISA (10 uM;ATF2) (Percent). The procedure, abridged: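 GST-tagged full-length human p38 MAP kinase with GST-ATF2 (aa 19–96; 1.25 μM) and 40 μM ATP in HEPES pH 7.5 buffer, without (Method I) or with (Method II) 1% human serum albumin. Compound pre-incubated 15 min at room temperature; reaction 30 min at 37 °C; ATF2 Thr69 phosphorylation measured by ELISA (A450).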
In general terms: In an ELISA, binding on a coated surface is turned into a signal by an enzyme label.

The test system of experiment [1] is TNFα release from THP-1 cells. As to the kind of experiment: Inhibition of TNFα release from LPS-stimulated THP-1 cells, ELISA. The following applies: Homo sapiens, read-out: [CELL] THP-1, IC50, TNF ALPHA, ELISA. In kind it is cell-based. From the text: Compounds of the invention are screened for the ability to inhibit TNFα and IL-1β release from THP-1 cells stimulated with lipopolysaccharide (LPS) in vitro. The ability of compounds to inhibit TNFα and IL-1β release in this in vitro assay is correlated with the inhibition of p38 activity and TNFα and IL-1β expression in vivo, and is therefore an indicator of potential in vivo therapeutic activity (Lee J. C. et al, Ann. N.Y. Acad. Sci. 696: 149-170, 1993 and Nature, 372: 739-746, 1994).
Materials: THP-1 cells from ATCC (TIB202) are maintained at 37° C., 5% CO2 in RPMI 1640 media (available from MediaTech, Herndon, Va.) containing 4.5 g/L glucose, supplemented with 10% fetal bovine serum, 1% penicillin/streptomycin and 50 μM β-mercaptoethanol.
Methods: Test compounds are initially dissolved in RPMI media with 1% DMSO (v/v). Compounds are then serially diluted in RPMI media for all subsequent dilutions. The assay is performed under sterile conditions. THP-1 cells at a culture density of 6-8×10^5 cells/ml are collected and resuspended in the RPMI media at 10^6 cells/ml containing 10% fetal bovine serum, no serum or 1% human serum albumin (HSA). 100 μl of resuspended cells are added to each well, which contain 100 μl of a test compound. Test compounds are prepared at twice the final concentration. Final DMSO concentration is no more than 0.5% (v/v). Cells are preincubated with compound for 30 minutes at 37° C., 5% CO2 prior to stimulation with lipopolysaccharide (LPS) (Sigma L-2880, 4 mg/ml stock in PBS). The final LPS concentration in each well is 10 or 30 μg/ml for TNFα and IL-1β release, respectively. Unstimulated control cell suspensions receive PBS vehicle only. Cell mixtures are incubated for 18 or 48 hours for TNFα and IL-1β prelease, respectively. 150 μl of supernatants are taken and transferred to a fresh plate and stored at −20° C. until further analysis. TNFα and IL-1β levels are measured using ELISA kits from Biosource (Catalog no. KHC3012 for TNFα; KAC1192 for IL-1β). A SpectraMAX 250 is used as the plate reader. Analysis is performed by non-linear regression to generate a dose response curve. The calculated IC50 value is the concentration of the test compound that causes a 50% decrease in TNFα or IL-1β levels.

Molecules are shown by their SMILES. Read-outs that look alike come from different tables or passages of the source.

T1 sequence (Q16539 whole entry, the tested form may be a part): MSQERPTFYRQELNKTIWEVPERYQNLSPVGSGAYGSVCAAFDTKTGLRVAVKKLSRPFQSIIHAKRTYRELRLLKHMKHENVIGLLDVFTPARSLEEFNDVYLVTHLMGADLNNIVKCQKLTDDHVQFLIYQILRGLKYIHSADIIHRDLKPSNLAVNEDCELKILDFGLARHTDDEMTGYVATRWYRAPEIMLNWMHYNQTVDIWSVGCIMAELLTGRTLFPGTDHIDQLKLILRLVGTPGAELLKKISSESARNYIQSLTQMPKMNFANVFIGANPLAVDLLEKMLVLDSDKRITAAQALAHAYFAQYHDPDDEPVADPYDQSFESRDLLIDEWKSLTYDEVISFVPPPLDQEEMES

Turning to `C[C@@H]1CN(c2cccc(C(=O)Nc3ccc(OCCN4CCOCC4)c4ccccc34)c2)C[C@H](C)O1` [Compound B31], the IC50 on p38α is 10 µM; in experiment [1] (THP-1, THP-1 cells), above 10 µM.
With `CC(=O)Nc1cccc(C(=O)Nc2ccc(OCCN3CCOCC3)c3ccccc23)c1` [Compound B32], the IC50 at p38α is 7.49 µM; in experiment [1] (THP-1, THP-1 cells), above 10 µM.
Regarding `CN(C)c1cccc(C(=O)Nc2ccc(OCCN3CCOCC3)c3ccccc23)c1` [Compound B33], the IC50 at p38α is 29.8 µM; in experiment [1] (THP-1, THP-1 cells), above 10 µM.
On to `CN(C)c1ccc(C(=O)Nc2ccc(OCCN3CCOCC3)c3ccccc23)cc1` [Compound B34], for which the IC50 is 10.7 µM on p38α and above 10 µM in experiment [1] (THP-1, THP-1 cells).
Regarding `CN(C)c1ccccc1C(=O)Nc1ccc(OCCN2CCOCC2)c2ccccc12` [Compound B35], the IC50 was above 100 µM at p38α and above 10 µM in experiment [1] (THP-1, THP-1 cells).
As for `Cc1ccc(C(=O)Nc2ccc(OCCN3CCOCC3)c3ccccc23)cc1Br` [Compound B37], the IC50 on p38α is above 100 µM; in experiment [1] (THP-1, THP-1 cells) it was above 10 µM.
In the same order, the values of `O=C(Nc1ccc(OCCN2CCOCC2)c2ccccc12)c1cc(Br)ccc1Cl` [Compound B38] are above 10 µM and above 10 µM.
In the same order, the values of `Cc1ccc(N2CCOCC2)cc1C(=O)Nc1ccc(OCCN2CCOCC2)c2ccccc12` [Compound B39, 2-Methyl-5-morpholin-4-yl-N-[4-(2-morpholin-4-yl-ethoxy)-naphthalen-1-yl]-benzamide] are 2.46 µM and 2.76 µM.
As to `Cc1ccc(C(=O)Nc2ccc(OCCN3CCOCC3)c3ccccc23)cc1N1CCOCC1` [Compound B40, 4-Methyl-3-morpholin-4-yl-N-[4-(2-morpholin-4-yl-ethoxy)-naphthalen-1-yl]-benzamide], the IC50 on p38α is 2.49 µM; in experiment [1] (THP-1, THP-1 cells), above 10 µM.
As to `O=C(Nc1ccc(OCCN2CCOCC2)c2ccccc12)c1cc(N2CCOCC2)ccc1Cl` [Compound B41], the IC50 was above 10 µM at p38α and above 10 µM in experiment [1] (THP-1, THP-1 cells).
As to `O=C(Nc1ccc(OCCN2CCOCC2)c2ccccc12)c1cc(N2CCOCC2)nc(Cl)n1` [Compound B42, 2-Chloro-6-morpholin-4-yl-pyrimidine-4-carboxylic acid [4-(2-morpholin-4-yl-ethoxy)-naphthalen-1-yl]-amide], the IC50 is 6.34 µM on p38α and above 1 µM in experiment [1] (THP-1, THP-1 cells).
As for `O=C(Nc1ccc(OCCN2CCOCC2)c2ccccc12)c1ccnc(N2CCC(O)CC2)c1` [Compound B43, 4-Hydroxy-3,4,5,6-tetrahydro-2 H-[1,2′]bipyridinyl-4′-carboxylic acid [4-(2-morpholin-4-yl-ethoxy)-naphthalen-1-yl]-amide], the half-inhibitory concentration (IC50) on p38α is above 10 µM; in experiment [1] (THP-1, THP-1 cells), 2.72 µM.
With `O=C(Nc1ccc(OCCN2CCOCC2)c2ccccc12)c1ccnc(N2CCC3(CC2)OCCO3)c1` [Compound B44, 2-(1,4-Dioxa-8-aza-spiro[4.5]dec-8-yl)-N-[4-(2-morpholin-4-yl-ethoxy)-naphthalen-1-yl]-isonicotinamide], the IC50 at p38α was above 10 µM; in experiment [1] (THP-1, THP-1 cells), 1.01 µM.
As to `O=C(Nc1ccc(OCCN2CCOCC2)c2ccccc12)c1ccnc(N2CCCC2)c1` [Compound B45, N-[4-(2-Morpholin-4-yl-ethoxy)-naphthalen-1-yl]-2-pyrrolidin-1-yl-isonicotinamide], the IC50 was found to be 2.12 µM at p38α and 1.19 µM in experiment [1] (THP-1, THP-1 cells).
For the molecule `Cc1nc(C(=O)Nc2ccc(OCCN3CCOCC3)c3ccccc23)cc(N2CCOCC2)n1` [Compound B46], the IC50 was above 10 µM on p38α and 0.685 µM in experiment [1] (THP-1, THP-1 cells).
Take `O=C(Nc1ccc(OCCN2CCOCC2)c2ccccc12)c1cc(N2CCOCC2)nc(N2CCCC2)n1` [Compound B47]: the IC50 at p38α is above 10 µM; in experiment [1] (THP-1, THP-1 cells), 0.843 µM.
Take `O=C(Nc1ccc(OCCN2CCOCC2)c2ccccc12)c1cn(Cc2ccccc2)c2ccccc12` [Compound B49]: the IC50 (on p38α; in experiment [1] (THP-1 cells)) was above 10 µM in each case.
As for `O=C(Nc1ccc(OCCN2CCOCC2)c2ccccc12)c1cccc(CN2CCCCC2)c1` [Compound B55], the IC50 was above 10 µM at p38α and above 10 µM in experiment [1] (THP-1, THP-1 cells).
With `Cc1cccc(C(=O)Nc2ccc(OCCN3CCOCC3)c3ccccc23)c1` [Compound B56], the IC50 on p38α is above 10 µM; in experiment [1] (THP-1, THP-1 cells) it was above 10 µM.
As to `CN1CCN(c2cccc(C(=O)Nc3ccc(OCCN4CCOCC4)c4ccccc34)c2)CC1` [Compound B59], the IC50 at p38α was above 10 µM; in experiment [1] (THP-1, THP-1 cells) it was above 10 µM.
In the case of `O=C(Nc1ccc(OCCN2CCOCC2)c2ccccc12)c1cccc(Oc2ccccc2)c1` [Compound B61], the IC50 is 2.3 µM at p38α and above 10 µM in experiment [1] (THP-1, THP-1 cells).
With `O=C(Nc1ccc(OCCN2CCOCC2)c2ccccc12)c1ccc2c(c1)OCCCO2` [Compound B62], the IC50 at p38α was above 10 µM; in experiment [1] (THP-1, THP-1 cells) it was above 10 µM.
With `CC(C)(C)OC(=O)Nc1cccc(C(=O)Nc2ccc(OCCN3CCOCC3)c3ccccc23)c1` [Compound B63], the IC50 on p38α is above 10 µM; in experiment [1] (THP-1, THP-1 cells), above 10 µM.
For `O=C(Nc1ccc(OCCN2CCOCC2)c2ccccc12)c1cccc(N2CCC3CCCCC3C2)n1` (centres unmarked) [Compound B71], the IC50 on p38α was above 10 µM; in experiment [1] (THP-1, THP-1 cells) it was above 10 µM.
Consider `Cc1cccc(C(=O)Nc2ccc(OCCN3CCOCC3)c3ccccc23)c1Cl` [Compound B82], for which, on p38α, the inhibition at 10 µM was 41.3%. Further, in experiment [1] (THP-1, THP-1 cells), the IC50 stood at 10.7 µM.
With `O=C(Nc1ccc(OCCN2CCOCC2)c2ccccc12)c1cccc(-c2ccccc2)c1` [Compound B84, Biphenyl-3-carboxylic acid [4-(2-morpholin-4-yl-ethoxy)-naphthalen-1-yl]-amide], at p38α, the inhibition at 10 µM stood at 88%. The IC50 on p38α came to 0.451 µM; in experiment [1] (THP-1, THP-1 cells), 2.03 µM.
With `O=C(Nc1ccc(OCCN2CCOCC2)c2ccccc12)c1ccc2ccccc2c1` [Compound B85], the inhibition at 10 µM at p38α was 66%. In addition, the IC50 was found to be 3.18 µM on p38α and 4.03 µM in experiment [1] (THP-1, THP-1 cells).
`O=C(Nc1ccc(OCCN2CCOCC2)c2ccccc12)c1cccc(-c2ccncc2)c1` [Compound B86, N-[4-(2-Morpholin-4-yl-ethoxy)-naphthalen-1-yl]-3-pyridin-4-yl-benzamide]: on p38α, the inhibition at 10 µM is 67% and the half-maximal inhibitory concentration (IC50) amounted to 4.16 µM. The IC50 in experiment [1] (THP-1, THP-1 cells) was 2.71 µM.
Consider `O=C(Nc1ccc(OCCN2CCOCC2)c2ccccc12)c1cccc(-c2cccc(C(F)(F)F)c2)c1` [Compound B88, 3′-Trifluoromethyl-biphenyl-3-carboxylic acid [4-(2-morpholin-4-yl-ethoxy)-naphthalen-1-yl]-amide], for which the inhibition at 10 µM at p38α is 59%. For the same molecule, the IC50 on p38α is 1.85 µM; in experiment [1] (THP-1, THP-1 cells) it was 3.6 µM.
Take `COc1ccccc1-c1cccc(C(=O)Nc2ccc(OCCN3CCOCC3)c3ccccc23)c1` [Compound B90]: on p38α, the inhibition at 10 µM amounted to 78% and the IC50 came out at 1.33 µM. Moreover, the IC50 in experiment [1] (THP-1, THP-1 cells) came out at 5.25 µM.
On to `COc1cccc(-c2cccc(C(=O)Nc3ccc(OCCN4CCOCC4)c4ccccc34)c2)c1` [Compound B91], for which, at p38α, the inhibition at 10 µM was 78% and the 50% inhibitory concentration (IC50) came to 0.9 µM. Moreover, the IC50 in experiment [1] (THP-1, THP-1 cells) stood at 3.55 µM.
In the same order, the values of `CCCC/C=C/c1cccc(C(=O)Nc2ccc(OCCN3CCOCC3)c3ccccc23)c1` [Compound B99] are 45%, above 10 µM and 5.57 µM.
As for `O=C(Nc1ccc(OCCN2CCOCC2)c2ccccc12)c1cccc(-c2ccc(F)cc2F)c1` [Compound B100], on p38α, the inhibition at 10 µM was found to be 86% and the IC50 stood at 0.744 µM. Besides, the half-inhibitory concentration (IC50) in experiment [1] (THP-1, THP-1 cells) amounted to 1.59 µM.
On to `O=C(Nc1ccc(OCCN2CCOCC2)c2ccccc12)c1cccc(-c2ccccc2Cl)c1` [Compound B101], for which the inhibition at 10 µM at p38α turned out to be 87%. Also, the IC50 came to 0.864 µM at p38α and 2.03 µM in experiment [1] (THP-1, THP-1 cells).
